Measurements as given in publication PMC12400753 (Respiratory Research, 2025).

Key:
[1] = system: bleomycin-induced lung fibrosis; assay: Systemic (subcutaneous) bleomycin mouse model; type: in vivo; conditions: 30 mg/kg oral twice a day, therapeutic
Protocol: Mice were injected subcutaneously with bleomycin (0.1 units/day), on a schedule of 5 days on/2 days off to induce fibrosis. […] Dosing was maintained until study end, at which point lung tissues were collected. The right lobe was snap frozen and processed for collagen analysis for hydroxyproline; the left lobe was sectioned and stained with Masson’s trichrome stain for histological assessment of tissue collagen. This study was conducted by Inotiv (West Lafayette, IN). Forty-four female 9 week old C57Bl/6 mice (Jackson Labs) were provided standard chow (Envigo, Cat #: 8940), housed under standard conditions, and allowed to acclimate for > 3 days prior to enrollment. Prior to start, mice were weighed and placed into balanced enrollment groups. Four days prior to start, mice were anesthetized, dorsal fur shaved and removed with depilatory agent, and two circles (~ 1.5 cm diameter) heat-branded on their dorsal abdomen. Fur was removed as needed for the balance of the study to ensure consistent location of s.c. injections. Beginning on day 0 and through day 26, mice were anesthetized with isoflurane and administered 0.9% NaCl or bleomycin injections (100 µl/injection, s.c.) into each of the circles (2 injections/mouse/d) on a 5 day on/2 day off paradigm. Mice were administered 0.9% NaCl (vehicle) or bleomycin (0.1 U) with bleomycin doses split evenly between the two circles (i.e., 0.05 U/circle). […] Weight measures and health observations were made daily. On day 27, mice were dosed to enable trough blood/plasma collection on day 28, which was collected via retro-orbital approach under isoflurane anesthesia. Following blood collection, mice were administered vehicle or compound on a timetable as appropriate to enable a peak blood collection 2 h postdose. At the time of sacrifice, mice were anesthetized with pentobarbital, a tracheotomy performed and interfaced with a positive pressure ventilator providing 100% O2. The mouse’s chest was then opened, and a needle interfaced with an infusion pump introduced to the right ventricle. […] The lungs were then harvested, immediately immersed in ice-cold 0.9% NaCl, gross dissected and subjected to morphological analyses. Tissue samples will be processed for biochemical and/or histological analyses as described below. Masson’s Trichrome Blue stained slides were subjected to histological analyses using color segmentation analysis for lung fibrosis. Frozen lung samples underwent hydroxyproline analysis as described below. Lung tissue processing – following exsanguination and flushing of the pulmonary circulation to clear blood, the lungs were removed, placed in ice-cold 0.9% NaCl and processed on wet ice. Extraneous tissue was removed and whole lung weight recorded. […]

[2] = system: primary human lung fibroblasts; assay: LPA-induced COL1A1 expression (immunocytochemistry); type: cell-based; conditions: Homo sapiens, Fibroblast; 1 µM LPA 8 h; compound overnight; read-out: IC50 inhibition of COL1A1 expression
Protocol: COL1A1 assay: Primary human lung fibroblasts were plated in a 96-well plate and allowed to adhere. […] The next day, cells were treated with 1 µM LPA and incubated for 8 h. After incubation in LPA, cells were immunostained for COL1A1. Cells were fixed in formalin for 10 min, washed 3 x with PBS, incubated in collagen 1A1 antibody (1:250 in blocking buffer, 0.1% Triton X-100 in PBS, 2 h), and washed 3 x with PBS. Secondary antibody solution (1:500) and Hoechst (1:2000) were added for 1 h, washed 3 x in PBS then imaged on a Nikon A1R confocal microscope at 10x magnification except human lung fibroblasts which were imaged at 4x. Collagen area was quantified with ImageJ and normalized to Hoechst per image.

[3] = molecular target: T1, LPAR1 (Homo sapiens, UniProt Q92633); assay: LPAR1 calcium mobilization (reference compounds); type: cell-based
Protocol: B. C. LPAR1 Averaged Data (n=4) 200 […] 125 Nonspecific Binding 2nM 600 Specific Binding 150 1nM 100 75 400 100 50 200 25 50 0 0 -25 0 2 4 6 8 10 120 -10 -9 -8 -7 -6 -5[3H]-PIPE-497 (nM) 0 25 50 75 100 125 log[PIPE-497], M Time Figure S3. PIPE- 497 is a potent L P AR 1 receptor antagonist with properties suitable as an in vivo radioligand. A. L P AR 1 calcium mobilization data showing that PIPE-497 (non-tritiated) is a p ot ent […] B. Saturation binding curves of 3H-PIPE-497 to huma n LPAR1 membranes (n=2, error bars are SEM). C. Binding kinetics of 3H-PIPE-497 in recombinant membranes. […] with 10 μM PIPE- 497 th en add ed to membranes at different time points resulting in a residence time of 16.2 minutes (n=4, error bars are SEM). […] At 10 mg/kg, th e free p las ma exposure of BM S -986278 exceeds its measured IC 5 0 up until 4 h p ost d ose. […] IC50 LPAR1)

[4] = system: human precision cut lung slices from donors with pulmonary fibrosis; assay: Fibrotic marker mRNA (qPCR) in cryopreserved PCLS from donors with pulmonary fibrosis; type: cell-based; conditions: 6 days
Text: Slices were snap frozen and processed for transcript analysis by quantitative PCR. […] Concurrently, we evaluated two well-established, clinical stage antifibrotic mechanisms in this setting: an αvβ1/6 inhibitor (bexotegrast, PLN-74809) and a PDE4B inhibitor (nerandomilast, BI 1015550).
Precision cut lung slices were obtained from Anabios (San Diego, CA) and collected in accordance with their ethics policy (https://anabios.com/ethics-statement/). Donor demographics are available in Additional File 1. Slices were thawed as per vendor instructions. Briefly, PCLS were thawed at 37 °C then transferred to media consisting of DMEM/F12, Antibiotic-Antimytotic, and Penicillin-Streptomycin. PCLS were gently rinsed then transferred to a larger dish. A small tissue sample was excised with a scalpel for immunohistochemistry and qPCR characterization. […] Final concentration of DMSO was 0.1%. Media and compound were replaced every two days for a total of 6 days. At the end of the experiment, slices were collected and snap frozen. Quantitative PCR: RNA was extracted using RNEasy columns. RNA was reverse transcribed using qScript XLT per manufacturer’s instructions. Genes of interest were assessed by qPCR using Perfecta SYBR Green on a StepOne Plus Thermocycler (ABI). Parameters were as follows: 95 °C 30 s, then 45 cycles of 95 °C for 5 s and 60 °C for 30 s.

[5] = system: fresh human PCLS from donors with pulmonary fibrosis; assay: Secreted biomarkers in fresh PCLS from pulmonary fibrosis donors; type: cell-based; conditions: nintedanib 300 nM; 48 h
Text: Translationally, biomarker-based strategies for assessing aberrant extracellular matrix deposition and remodeling in the context of disease pathogenesis and compound efficacy have become increasingly relevant. For the PCLS gene expression studies, slices were preserved through slow cryogenic freezing of tissue. While this affords experimental flexibility, some physiological relevance is lost over the course of cryostorage and recovery (e.g., immune cell loss). To circumvent this, fresh PCLS from two donors with pulmonary fibrosis were generated and immediately placed into culture. For this experiment, well-established, secreted fibrotic markers that encompass fibrogenesis and tissue remodeling were measured: C3M (a marker of collagen III degradation and an indicant of ECM remodeling and tissue turnover), Pro-C3 (a neo-epitope fragment of collagen III and a marker of active fibrogenesis and fibrosis progression), and Pro-C6 (a neoepitope fragment of COLVIA3 and a marker of remodeling and wound healing). […] Media was then removed and analyzed for biomarker concentration.
PCLS cultures for secreted biomarker analysis were performed at Fraunhofer ITEM (Hanover, Germany) using tissue from pathologist qualified, pulmonary fibrosis patients. Tissue from individual donors and 2 lung regions were collected in accordance with policies approved by the Hanover Medical School ethics committee. Only fibrotic tissue was used for experiments. Region 1 consisted of subpleural tissue and Region 2 of central tissue. For each, lung lobes were filled with low-melting agarose then sectioned at 300 μm on a Krumdiek tissue slicer as described in Hesse et al., 2022. Slices were incubated in DMEM containing penicillin and streptomycin, two slices per region were used. […] Supernatant was collected and shipped to Nordic Bioscience (Herlev, Denmark) for C3M, Pro-C6 and Pro-C3 analysis. Donor information can be found in Additional File 1.

[6] = molecular target: T1, LPAR1; assay: LPA-induced calcium mobilization in transiently transfected HEK293T cells; type: cell-based; design: host or cells: HEK293T; conditions: empirically determined, used for stimulation
Protocol: (§1) We had previously assessed selectivity against LPAR2 and 3 [11]. […] Human LPAR1-6 plasmids were each transiently transfected into HEK293T cells and the EC80 (effective concentration producing 80% maximal effect) for LPA activation empirically determined. Selectivity was then tested in a concentration response paradigm using a 3 h preincubation followed by LPA-induced calcium mobilization.
(§2) Plasmids containing human LPAR1-6 were obtained from Origene (Rockville, MD) and maxiprepped at Eton Biosciences (San Diego, CA). Transfection mix was prepared by adding Fugene 6 transfection mix to serum free media and 0.1 µg plasmid. After a 20 m incubation, HEK293T cells (ATCC, Manassas VA) were lifted with Accutase and added to the Fugene mix at a final concentration of 0.5 × 10^4 cells/well. Cells were then plated on black clear bottom 96-well plates and incubated overnight in a 37 °C, 5% CO2 incubator. […] During the last hour of incubation, media was removed and replaced with Fluo-4 NW calcium assay dye prepared as per manufacturer’s recommendations in assay buffer. Agonist plates containing LPA were prepared for individual receptor subytpes using their respective EC80. Calcium mobilization was measured as per manufacturer’s directions on a Flexstation 3 (Molecular Devices, San Jose, CA).

[7] = molecular target: T2, human LPAR6 (Homo sapiens, UniProt P43657); assay: as above; type: cell-based; conditions: empirically determined, used for stimulation
T2 construct: host or cells: HEK293T
T2 sequence (P43657 1-344): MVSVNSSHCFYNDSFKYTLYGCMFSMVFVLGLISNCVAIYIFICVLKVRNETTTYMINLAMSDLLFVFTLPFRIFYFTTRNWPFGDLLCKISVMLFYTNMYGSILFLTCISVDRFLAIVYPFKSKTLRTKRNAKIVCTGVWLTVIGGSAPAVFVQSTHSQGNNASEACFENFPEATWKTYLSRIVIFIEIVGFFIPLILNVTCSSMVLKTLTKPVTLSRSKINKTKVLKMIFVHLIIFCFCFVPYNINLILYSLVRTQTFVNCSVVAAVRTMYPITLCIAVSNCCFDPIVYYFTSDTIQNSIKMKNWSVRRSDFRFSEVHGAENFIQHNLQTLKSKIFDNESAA
Protocol: as §1, §2

[8] = molecular target: T3, human LPAR3 (Homo sapiens, UniProt Q9UBY5); assay: as above; type: cell-based; conditions: empirically determined, used for stimulation
T3 construct: host or cells: HEK293T
T3 sequence (Q9UBY5 1-353): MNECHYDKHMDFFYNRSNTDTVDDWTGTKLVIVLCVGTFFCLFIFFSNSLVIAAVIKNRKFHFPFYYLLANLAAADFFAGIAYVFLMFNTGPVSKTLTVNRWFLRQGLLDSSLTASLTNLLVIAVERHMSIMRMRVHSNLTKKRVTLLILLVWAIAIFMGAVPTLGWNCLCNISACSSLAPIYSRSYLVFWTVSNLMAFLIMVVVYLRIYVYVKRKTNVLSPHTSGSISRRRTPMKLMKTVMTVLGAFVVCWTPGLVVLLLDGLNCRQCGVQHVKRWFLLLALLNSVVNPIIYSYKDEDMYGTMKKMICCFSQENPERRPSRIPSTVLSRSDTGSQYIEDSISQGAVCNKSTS
Protocol: as §1, §2

[9] = molecular target: T4, human LPAR4 (Homo sapiens, UniProt Q99677); assay: as above; type: cell-based; conditions: empirically determined, used for stimulation
T4 construct: host or cells: HEK293T
Protocol: as §1, §2

[10] = molecular target: T5, human LPAR5 (Homo sapiens, UniProt Q9H1C0); assay: as above; type: cell-based; conditions: empirically determined, used for stimulation
T5 construct: host or cells: HEK293T
Protocol: as §1, §2

[11] = molecular target: T6, human LPAR2 (Homo sapiens, UniProt Q9HBW0); assay: as above; type: cell-based; conditions: empirically determined, used for stimulation
T6 construct: host or cells: HEK293T
Protocol: as §1, §2

T1 sequence (Q92633 whole entry): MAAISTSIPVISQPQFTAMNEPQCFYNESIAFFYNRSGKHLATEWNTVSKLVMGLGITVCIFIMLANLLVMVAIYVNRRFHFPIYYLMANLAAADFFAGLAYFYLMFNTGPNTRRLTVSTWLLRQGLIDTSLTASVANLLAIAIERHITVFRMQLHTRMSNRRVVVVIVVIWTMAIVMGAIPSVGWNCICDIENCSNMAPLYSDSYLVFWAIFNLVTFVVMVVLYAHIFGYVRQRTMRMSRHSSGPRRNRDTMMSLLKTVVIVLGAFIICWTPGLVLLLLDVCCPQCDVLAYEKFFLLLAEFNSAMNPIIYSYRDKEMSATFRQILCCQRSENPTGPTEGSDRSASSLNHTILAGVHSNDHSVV
T5 sequence (Q9H1C0 whole entry): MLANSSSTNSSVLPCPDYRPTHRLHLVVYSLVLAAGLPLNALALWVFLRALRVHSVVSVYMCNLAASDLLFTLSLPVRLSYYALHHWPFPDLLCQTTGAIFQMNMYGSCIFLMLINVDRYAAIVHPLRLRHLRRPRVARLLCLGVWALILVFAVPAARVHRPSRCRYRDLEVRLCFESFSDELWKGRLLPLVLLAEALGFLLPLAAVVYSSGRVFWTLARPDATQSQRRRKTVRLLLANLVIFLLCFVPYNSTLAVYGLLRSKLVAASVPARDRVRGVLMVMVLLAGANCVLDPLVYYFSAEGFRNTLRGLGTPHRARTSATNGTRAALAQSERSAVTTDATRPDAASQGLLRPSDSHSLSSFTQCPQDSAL
T4 sequence (Q99677 whole entry): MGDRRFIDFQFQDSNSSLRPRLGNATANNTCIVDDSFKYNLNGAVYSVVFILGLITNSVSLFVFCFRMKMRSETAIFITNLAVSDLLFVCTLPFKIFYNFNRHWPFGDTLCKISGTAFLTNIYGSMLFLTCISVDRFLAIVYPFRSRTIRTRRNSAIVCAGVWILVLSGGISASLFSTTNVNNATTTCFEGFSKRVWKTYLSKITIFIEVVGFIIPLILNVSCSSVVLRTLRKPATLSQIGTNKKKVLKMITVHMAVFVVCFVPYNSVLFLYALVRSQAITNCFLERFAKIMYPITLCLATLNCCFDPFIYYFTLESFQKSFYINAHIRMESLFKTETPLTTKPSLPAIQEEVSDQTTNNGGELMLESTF
T6 sequence (Q9HBW0 whole entry): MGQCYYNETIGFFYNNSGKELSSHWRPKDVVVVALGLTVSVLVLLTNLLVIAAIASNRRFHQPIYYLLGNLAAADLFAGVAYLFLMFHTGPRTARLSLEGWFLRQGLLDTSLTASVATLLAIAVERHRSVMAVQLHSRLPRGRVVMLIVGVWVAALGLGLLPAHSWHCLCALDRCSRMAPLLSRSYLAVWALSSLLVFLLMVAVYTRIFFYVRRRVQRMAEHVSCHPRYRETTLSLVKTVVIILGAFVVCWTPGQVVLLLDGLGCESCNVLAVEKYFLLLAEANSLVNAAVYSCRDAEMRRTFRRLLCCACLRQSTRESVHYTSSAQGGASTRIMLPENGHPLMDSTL

Molecule: Cc1noc(-c2ccc(-c3ccc(C4(C(=O)O)CC4)cc3)cc2)c1NC(=O)O[C@H](C)c1ccccc1 [BMS-986020, reference compound]
- lung hydroxyproline compared to bleomycin/vehicle [1]: no reduction in hydroxyproline
- reduction in tissue collagen fraction (TCF), trichrome ([1]; p = 0.2723): 62%

Molecule: CCCN(C)C(=O)OCc1c(-c2ccc(O[C@H]3CCC[C@H](C(=O)O)C3)c(C)n2)nnn1C [BMS-986278, reference compound]
- IC50 [2]: 30.6 nM
- IC50 [3]: 80.4 nM

Molecule: COCCN(CCCCc1ccc2c(n1)NCCC2)CC[C@H](Nc1ncnc2ccccc12)C(=O)O [bexotegrast]
- COL3A1 mRNA expression vs vehicle ([4]; 300 nM, P 0.1827 (not significant)): reduces
- SERPINE1 mRNA expression vs vehicle ([4]; 300 nM, P 0.4056 (not significant)): reduces
- LPAR1 mRNA expression vs vehicle ([4]; 300 nM, P 0.8283): unchanged
- COL1A1 mRNA expression vs vehicle ([4]; 300 nM, P < 0.05): significantly less
- TIMP-1 mRNA expression vs vehicle ([4]; 300 nM, P < 0.05): significantly lower

Molecule: [O-][S+]1CCc2nc(N3CCC(c4ncc(Cl)cn4)CC3)nc(NC3(CO)CCC3)c21 (stereo not shown) [nerandomilast]
- COL3A1 mRNA expression vs vehicle ([4]; 10 µM, P 0.1621 (not significant)): reduces
- TIMP1 mRNA expression vs vehicle ([4]; 10 µM, P 0.6976 (not significant)): reduces
- SERPINE1 mRNA expression vs vehicle ([4]; 10 µM, P 0.8986 (not significant)): reduces
- COL1A1 mRNA expression vs vehicle ([4]; 10 µM, P < 0.05): significantly less

Molecule: COC(=O)c1ccc2c(c1)NC(=O)/C2=C(\Nc1ccc(N(C)C(=O)CN2CCN(C)CC2)cc1)c1ccccc1 [nintedanib, reference compound]
- secreted C3M [5]: significant reduction
- secreted Pro-C3 [5]: did not show a significant decrease
- secreted Pro-C6 [5]: reduced

Molecule: lysophosphatidic acid [LPA, reference compound]
- LPA EC80 [6]: 5000 nM
- LPA EC80 [7]: 13000 nM
- LPA EC80 [8]: 10000 nM
- LPA EC80 [9]: 10000 nM
- LPA EC80 [10]: 1000 nM
- LPA EC80 [11]: 5000 nM
